ChEMBL document CHEMBL6127046, “Design, synthesis, and preclinical evaluation of 11C/18F-labeled inhibitors for RIPK1 PET imaging” (Eur J Med Chem, 2024)

Experiments:
[1] = system: L929; assay: Anti-necroptosis activity against TNFalpha/Z-VAD-FMK-induced mouse L929 cell necroptosis model assessed as cell viability incubated for 24 hrs by CCK8 assay; assay type: functional, cell-based; conditions: L929, 24 h
[2] = system: HT-29; assay: Anti-necroptosis activity against TNFalpha/SM-164/Z-VAD-FMK-induced human HT-29 cell necroptosis model assessed as cell viability incubated for 24 hrs by CCK8 assay; assay type: functional, cell-based; conditions: HT-29, 24 h
[3] = system: U-937; assay: Anti-necroptosis activity against TNFalpha/SM-164/Z-VAD-FMK-induced human U-937 cell necroptosis model assessed as cell viability incubated for 24 hrs by CCK8 assay; assay type: functional, cell-based; conditions: U-937, 24 h
[4] = Lipophilicity, logD of compound at pH 7.4 by shake-flask method; assay type: physicochemical; conditions: buffer
[5] = target: T1, Receptor-interacting serine/threonine-protein kinase 1 (Homo sapiens, UniProt Q13546); assay: Binding affinity to RIPK1 (unknown origin) by KINOMEscan method
T1 sequence (Q13546 whole entry): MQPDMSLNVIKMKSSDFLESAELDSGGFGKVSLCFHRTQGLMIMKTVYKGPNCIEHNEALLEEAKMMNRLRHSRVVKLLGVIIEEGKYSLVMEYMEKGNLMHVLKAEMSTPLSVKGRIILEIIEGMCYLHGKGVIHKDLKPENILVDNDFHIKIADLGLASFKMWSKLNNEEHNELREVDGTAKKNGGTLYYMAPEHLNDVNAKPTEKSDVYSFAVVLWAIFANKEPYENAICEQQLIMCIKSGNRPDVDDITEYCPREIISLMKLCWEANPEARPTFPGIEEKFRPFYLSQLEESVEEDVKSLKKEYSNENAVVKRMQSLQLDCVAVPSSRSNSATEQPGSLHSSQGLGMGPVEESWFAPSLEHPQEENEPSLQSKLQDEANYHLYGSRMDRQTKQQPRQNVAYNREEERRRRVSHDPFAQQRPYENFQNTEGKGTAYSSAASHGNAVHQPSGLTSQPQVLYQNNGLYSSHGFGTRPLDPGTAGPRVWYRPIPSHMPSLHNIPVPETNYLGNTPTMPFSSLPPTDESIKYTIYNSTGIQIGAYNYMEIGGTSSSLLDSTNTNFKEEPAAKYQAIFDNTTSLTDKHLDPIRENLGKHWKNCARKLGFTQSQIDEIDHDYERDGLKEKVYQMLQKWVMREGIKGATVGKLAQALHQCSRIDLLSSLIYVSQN

[6] = Drug uptake in mouse brain assessed as maximum standardized uptake value measured upto 60 mins by PET imaging method; assay type: ADME, tissue-based; conditions: in vivo, 1 h
[7] = Drug uptake in mouse striatum measured upto 60 mins by PET imaging method; assay type: ADME; conditions: in vivo, 1 h
[8] = Drug uptake in mouse thalamus measured upto 60 mins by PET imaging method; assay type: ADME; conditions: in vivo, 1 h
[9] = Drug uptake in mouse hippocampus measured upto 60 mins by PET imaging method; assay type: ADME; conditions: in vivo, 1 h
[10] = Drug uptake in mouse brain in presence of 1-(7-fluoro-2,3-dihydrobenzo[f][1,4]oxazepin-4(5H)-yl)-2,2-dimethylbutan-1-one by autoradiography; assay type: ADME, tissue-based; conditions: in vivo
[11] = Drug uptake in mouse brain in presence of Nec-1s by autoradiography; assay type: ADME, tissue-based; conditions: in vivo
[12] = Metabolic stability in mouse plasma assessed as remaining compound measured at 5 mins by HPLC analysis; assay type: ADME, cell-free; conditions: read-out: Stability
[13] = Metabolic stability in mouse plasma assessed as remaining compound measured at 10 mins by HPLC analysis; assay type: ADME, cell-free; conditions: read-out: Stability
[14] = Metabolic stability in mouse plasma assessed as remaining compound measured at 30 mins by HPLC analysis; assay type: ADME, cell-free; conditions: read-out: Stability
[15] = Drug metabolism in mouse plasma assessed as retention time; assay type: ADME, cell-free
[16] = Drug metabolism in mouse plasma measured at 11 mins; assay type: ADME, cell-free
[17] = Metabolic stability in mouse brain assessed as remaining compound measured at 5 mins by HPLC analysis; assay type: ADME, tissue-based; conditions: read-out: Stability
[18] = Metabolic stability in mouse brain assessed as remaining compound measured at 30 mins by HPLC analysis; assay type: ADME, tissue-based; conditions: read-out: Stability
[19] = Drug metabolism in mouse blood measured after 10 to 12 mins by HPLC analysis; assay type: ADME, tissue-based; conditions: time 10-12 min
[20] = Drug metabolism in mouse brain measured after 10 to 12 mins by HPLC analysis; assay type: ADME, tissue-based; conditions: time 10-12 min

Compound `CC(C)C(=O)Nc1nc2cc(-c3ccc4c(c3)c(C(=O)NC(C)c3ccccc3)cn4C)ccn2n1` (stereo unspecified) has an EC50 [1] of 0.004 µM, an EC50 [2] of 0.0125 µM and an EC50 [3] of 0.0124 µM.
In the case of `O=C(C1CCN(c2ncc(F)cn2)CC1)N1CCOc2ccccc2C1`, the EC50 [1] is reported as 0.83 µM.
With `CCC(C)(C)C(=O)N1CCOc2ccc(F)cc2C1` the EC50 [1] was 0.02 µM, the EC50 [2] was 0.00804 µM and the EC50 [3] was 0.0249 µM. For the same compound, the logD [4] was 3.1 and the Kd [5] was 0.018 µM.
Work on `O=C(C1CCN(c2ncc(Br)cn2)CC1)N1CCOc2ccc(Br)cc2C1` yielded an EC50 [1] greater than 10 µM.
With `O=C(C1CCN(c2ncc(O)cn2)CC1)N1CCOc2ccc(F)cc2C1` the EC50 [1] was greater than 10 µM.
With `COc1nc(N2CCC(C(=O)N3CCOc4ccc(F)cc4C3)CC2)ncc1F` the EC50 [1] was 6.57 µM.
In the case of `COc1ccc2c(c1)CN(C(=O)C1CCN(c3ncc(F)cn3)CC1)CCO2`, the EC50 [1] is reported as 2.58 µM.
With `CCC(C)(C)C(=O)N1CCOc2ccc([18F])cc2C1` the SUVmax [6] was 1.5, the Drug uptake [7] was “Active” and the Drug uptake [8] was “Active”. For the same compound, the Drug uptake [9] was “Active”, the Drug uptake [10] was “Not Active” and the Drug uptake [11] was “Not Active”. It also gave a remaining at 5 min [12] of 72%, a remaining at 10 min [13] of 51% and a remaining at 0.5 h [14] of 25%. The Retention_time [15] was 2.8 min, the Drug metabolism [16] was “Metabolite_Detected” and the remaining at 5 min [17] was 86%. For the same compound, the remaining at 0.5 h [18] was 44%, the Drug metabolism [19] was “Metabolite_Detected” and the Drug metabolism [20] was “Metabolite_Detected”.
`O=C(C1CCN(c2ncc(F)cn2)CC1)N1CCOc2ccc(F)cc2C1` showed an EC50 [1] of 0.77 µM, an EC50 [2] of 5.12 µM and an EC50 [3] of 2.76 µM. For the same compound, the logD [4] was 2.2.
`CCC(C)(C)C(=O)N1CCOc2ccc(O)cc2C1` showed an EC50 [1] greater than 10 µM.
Compound `CCC(C)(C)C(=O)N1CCOc2ccc(OC)cc2C1` has an EC50 [1] of 8.96 µM.
In the case of `O=C(C1CCN(c2ncc(F)cn2)CC1)N1CCOc2ccc(Br)cc2C1`, the EC50 [1] is reported as 6.93 µM.
For `O=C(C1CCN(c2ncc(F)cn2)CC1)N1CCOc2ccc(O)cc2C1`, the EC50 [1] was greater than 10 µM.
Work on `O=C(C1CCN(c2ncc([18F])cn2)CC1)N1CCOc2ccc(F)cc2C1` yielded an SUVmax [6] of 1.5.
With `O=C(C1CCN(c2ncc(Br)cn2)CC1)N1CCOc2ccccc2C1` the EC50 [1] was greater than 10 µM.
With `COc1nc(N2CCC(C(=O)N3CCOc4ccc(Br)cc4C3)CC2)ncc1F` the EC50 [1] was 5.21 µM.
`COc1cnc(N2CCC(C(=O)N3CCOc4ccccc4C3)CC2)nc1` gave an EC50 [1] of 4.23 µM.
Compound `O=C(C1CCN(c2ncc(Br)cn2)CC1)N1CCOc2ccc(F)cc2C1` has an EC50 [1] of 2.32 µM.
`[11CH3]Oc1cnc(N2CCC(C(=O)N3CCOc4ccc(F)cc4C3)CC2)nc1` gave an SUVmax [6] of 0.8.
In the case of `COc1cnc(N2CCC(C(=O)N3CCOc4ccc(F)cc4C3)CC2)nc1`, the EC50 [1] is reported as 0.38 µM, the EC50 [2] is reported as 0.2 µM and the EC50 [3] is reported as 2.2 µM. For the same compound, the logD [4] was 1.8.
